Experimental data taken from the NIST ThermoML archive (doi:10.1016/j.jct.2006.01.010).
Numbers after ± are expanded uncertainties.

Assays:
[1] = refractive index (Na D-line) (dimensionless); conditions: 298.15 K; 101.33 kPa; Liquid; Standard Abbe refractometry
[2] = Liquid, Ebulliometric method (Recirculating still)

## ClC(Cl)C(Cl)Cl [1,1,2,2-tetrachloroethane]
[1]
  refractive index: 1.492 ± 0.0008
[2]; 343.15 K
  vapor or sublimation pressure: 7.24 ± 0.08 kPa
[2]; 353.15 K
  vapor or sublimation pressure: 11.23 ± 0.1 kPa
[2]; 363.15 K
  vapor or sublimation pressure: 16.65 ± 0.13 kPa
[2]; 373.15 K
  vapor or sublimation pressure: 24.17 ± 0.17 kPa
[2]; 379.75 K
  vapor or sublimation pressure: 30.48 ± 0.23 kPa
[2]; 389.55 K
  vapor or sublimation pressure: 42.33 ± 0.28 kPa
[2]; 396.35 K
  vapor or sublimation pressure: 52.48 ± 0.33 kPa
[2]; 401.55 K
  vapor or sublimation pressure: 61.35 ± 0.38 kPa
[2]; 405.55 K
  vapor or sublimation pressure: 69.05 ± 0.43 kPa
[2]; 409.55 K
  vapor or sublimation pressure: 77.59 ± 0.47 kPa
[2]; 413.45 K
  vapor or sublimation pressure: 86.66 ± 0.51 kPa
[2]; 416.45 K
  vapor or sublimation pressure: 94.27 ± 0.56 kPa
[2]; 418.95 K
  vapor or sublimation pressure: 101.08 ± 0.58 kPa

## O=C1CCCC1 [cyclopentanone]
[1]
  refractive index: 1.4349 ± 0.0008
[2]; 323.15 K
  vapor or sublimation pressure: 5.31 ± 0.06 kPa
[2]; 333.15 K
  vapor or sublimation pressure: 8.49 ± 0.08 kPa
[2]; 343.15 K
  vapor or sublimation pressure: 13.03 ± 0.11 kPa
[2]; 353.15 K
  vapor or sublimation pressure: 19.61 ± 0.15 kPa
[2]; 358.85 K
  vapor or sublimation pressure: 24.48 ± 0.18 kPa
[2]; 363.15 K
  vapor or sublimation pressure: 28.61 ± 0.29 kPa
[2]; 363.45 K
  vapor or sublimation pressure: 29.04 ± 0.29 kPa
[2]; 372.25 K
  vapor or sublimation pressure: 39.48 ± 0.26 kPa
[2]; 378.35 K
  vapor or sublimation pressure: 48.32 ± 0.31 kPa
[2]; 384.15 K
  vapor or sublimation pressure: 57.77 ± 0.36 kPa
[2]; 388.85 K
  vapor or sublimation pressure: 67.18 ± 0.42 kPa
[2]; 393.25 K
  vapor or sublimation pressure: 76.67 ± 0.47 kPa
[2]; 397.65 K
  vapor or sublimation pressure: 87.37 ± 0.51 kPa
[2]; 399.75 K
  vapor or sublimation pressure: 92.98 ± 0.54 kPa
[2]; 403.05 K
  vapor or sublimation pressure: 101.76 ± 0.54 kPa

## O=C1CCCCC1 [cyclohexanone]
[1]
  refractive index: 1.4481 ± 0.0007
[2]; 343.15 K
  vapor or sublimation pressure: 5.57 ± 0.06 kPa
[2]; 353.15 K
  vapor or sublimation pressure: 8.6 ± 0.08 kPa
[2]; 363.15 K
  vapor or sublimation pressure: 13.07 ± 0.1 kPa
[2]; 373.15 K
  vapor or sublimation pressure: 18.9 ± 0.15 kPa
[2]; 385.45 K
  vapor or sublimation pressure: 29.1 ± 0.19 kPa
[2]; 394.05 K
  vapor or sublimation pressure: 38.41 ± 0.24 kPa
[2]; 401.35 K
  vapor or sublimation pressure: 48.2 ± 0.29 kPa
[2]; 407.35 K
  vapor or sublimation pressure: 57.43 ± 0.34 kPa
[2]; 414.75 K
  vapor or sublimation pressure: 70.59 ± 0.38 kPa
[2]; 419.8 K
  vapor or sublimation pressure: 81.35 ± 0.45 kPa
[2]; 424.05 K
  vapor or sublimation pressure: 91.55 ± 0.49 kPa
[2]; 427.8 K
  vapor or sublimation pressure: 101.1 ± 0.51 kPa
